Molecules are shown by their SMILES.

The subject of assay [1] is Rattus norvegicus. The assay can be described thus: Hypoglycemic activity in STZ-nicotinamide Wistar rat model of diabetes at 50 mg/kg administered intragastrically as single dose measured after 7 hrs relative to control. The following applies: route intragastric. In kind it is functional.
The test system of assay [2] is Rattus norvegicus. Nature of the assay: Hypoglycemic activity in STZ-nicotinamide Wistar rat model of diabetes at 50 mg/kg administered intragastrically as single dose. In kind it is functional, organism-based. Further details: dose 50 mg/kg. To be noted: TDE = time-dependent effect.

Regarding `Cc1c(C(=O)NN2CCCCC2)nn(-c2ccc(F)c(Cl)c2)c1-c1ccc(Cl)cc1`, the Activity in assay [1] is on record as 33.6%.

For `COc1ccc(Cl)cc1C(=O)NCCc1ccc(S(=O)(=O)NC(=O)NC2CCCCC2)cc1` [GLYBURIDE], the Activity in assay [1] is 38%.

Regarding `Cc1c(C(=O)NN2CCCCC2)nn(-c2ccnc3cc(Cl)ccc23)c1-c1ccc(Cl)cc1`, the Activity in assay [1] is given as 34.2%.

For `Cc1c(C(=O)NN2CCCCC2)nn(-c2ccccc2)c1-c1ccccc1`, the Activity in assay [1] was 37.2%.

With `Cc1c(C(=O)NN2CCCCC2)nn(-c2ccc(F)cc2F)c1-c1ccc(C(F)(F)F)cc1`, the Activity in assay [1] was 54.2%.

Consider `Cc1c(C(=O)NN2CCCCC2)nn(-c2ccc(C(F)(F)F)cc2)c1-c1ccc(Cl)cc1`, for which the Activity in assay [1] was determined as 27.3%.

Take `Cc1c(C(=O)NN2CCCCC2)nn(-c2ccc(F)cc2F)c1-c1ccc(F)cc1`: the Activity result in assay [2] is “tde”; in assay [1] it was 49.4%.

Consider `Cc1c(C(=O)NN2CCCCC2)nn(-c2ccc(C(F)(F)F)cc2)c1-c1ccc(Br)cc1`, for which, in assay [1], the Activity is recorded as -2.4%.

With `Cc1c(C(=O)NN2CCCCC2)nn(-c2ccc(F)c(Cl)c2)c1-c1ccc(F)cc1`, the Activity entry in assay [2] is “tde”; in assay [1], 58.7%.

Take `Cc1c(C(=O)NN2CCCCC2)nn(-c2ccc(Cl)cc2Cl)c1-c1ccc(Cl)cc1` [RIMONABANT]: the Activity in assay [1] was found to be 25.4%.

On to `Cc1c(C(=O)NN2CCCCC2)nn(-c2ccc(Cl)c(Cl)c2)c1-c1ccc(Cl)cc1`, for which the values for the Activity entry in assay [2] and in assay [1] were “tde” and 54.7%, respectively.

On to `Cc1c(C(=O)NN2CCCCC2)nn(-c2ccc(Cl)cc2Cl)c1-c1ccc(C(F)(F)F)cc1`, for which, in assay [1], the Activity is on record as 43.9%.

For `Cc1c(C(=O)NN2CCCCC2)nn(-c2ccc(Cl)cc2Cl)c1-c1ccccc1`, the Activity in assay [1] worked out at 1.08%.

As for `Cc1c(C(=O)NN2CCCCC2)nn(-c2ccnc3cc(Cl)ccc23)c1-c1ccc(F)cc1`, in assay [1], the Activity is listed as 22.4%.

Source of the values: ChEMBL document CHEMBL3102729, “Synthesis, hypoglycemic activity and molecular modeling studies of pyrazole-3-carbohydrazides designed by a CoMFA model” (2013).
